From PubChem BioAssay AID248 (DTP/NCI, 2004)
“And” between values parts separate entries of the source, which are not always exact repeats. Identical values can stand only once. Inconclusive results and toxic doses are left out. No stated cut-off is given here; in the data, active means T/C of 150% or more; inactive means T/C below 125%.

Test system: L1210 leukemia ip in BDF1 mice, survival T/C
Test: NCI In Vivo Anticancer Drug Screen. Data for tumor model L1210 Leukemia (intraperitoneal) in B6D2F1 (BDF1) mice
Conditions: endpoint: mean survival time, higher = longer survival
Method in brief: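 Antitumor effect is assessed in tumor-bearing animals. Survival in the compound arm is compared with a vehicle-dosed control arm and expressed as their quotient.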

Measured: T/C

C/C=C/C(=O)C12CCCCCCCCCC(=C1N1CCCCC1)C(=O)CC2C (configuration not stated)
inactive: dose: 100.0 mg/kg/injection, schedule: Q01DX001 (ip), vehicle: saline 93 % of control | dose: 100.0 mg/kg/injection, schedule: Q01DX009 (ip), vehicle: saline 90 % of control | dose: 200.0 mg/kg/injection, schedule: Q01DX001 (ip), vehicle: saline 98 % of control | dose: 200.0 mg/kg/injection, schedule: Q01DX009 (ip), vehicle: saline 92 % of control | dose: 400.0 mg/kg/injection, schedule: Q01DX001 (ip), vehicle: saline 98 % of control | dose: 400.0 mg/kg/injection, schedule: Q01DX009 (ip), vehicle: saline 98 % of control

OC1(c2ccccc2)CCN(Cc2ccccc2)CC1
inactive: dose: 25.0 mg/kg/injection, schedule: Q01DX001 (ip), vehicle: Klucel (hydroxypropylcellulose) (HPC) 106 % of control | dose: 50.0 mg/kg/injection, schedule: Q01DX001 (ip), vehicle: Klucel (hydroxypropylcellulose) (HPC) 118 % of control | dose: 100.0 mg/kg/injection, schedule: Q01DX001 (ip), vehicle: Klucel (hydroxypropylcellulose) (HPC) 93 % of control and 107 % of control

Nc1nc(SCc2ccccc2)c2nnn(C3OC(CO)C(O)C3O)c2n1 (configuration not stated)
inactive: dose: 100.0 mg/kg/injection, schedule: Q01DX001 (ip), vehicle: saline with Tween-80 101 % of control | dose: 200.0 mg/kg/injection, schedule: Q01DX001 (ip), vehicle: saline with Tween-80 96 % of control | dose: 400.0 mg/kg/injection, schedule: Q01DX001 (ip), vehicle: saline with Tween-80 111 % of control
